Results published in patent publication US20050119305A1, “Il-6 production inhibitors” (priority 2001, published 2005).

Tested on: IL-6 production from A549 cells
Assay: Inhibitory activity on IL-6 production from A549 cells (TNF-α stimulated, ELISA)
Format: cell-based
Conditions: A549 cells (human lung epithelial cell line), TNF-α stimulation, 24 hours incubation, IL-6 in supernatant by ELISA; read-out: 50% inhibitory concentration (IC50) on IL-6 production
Procedure: According to following experiments, it is confirmed that the compound of the present invention has an inhibitory activity on IL-6 production. • (1) The Measurement of an Inhibitory Activity on IL-6 Production from A549 Cells Method:
1.5×10^4 of A549 cells (human lung epithelial cell line) were suspended in 100 μL of Dulbecco's Modified Eagle Medium (DMEM) containing 0.5% fetal bovine serum (abbreviated as FBS) and incubated for a day and night in 96 well-microplate. 20 μL of the test compound dissolved in dimethylsulfoxide (DMSO) at various concentrations and 80 μl of tumor necrosis factor-α (TNF-α (Genzyme Co., cat. No. TNF-H)) dissolved in serum-free DMEM at the concentration of 12.5 ng/mL were added thereto. After the incubation for 24 hours, the supernatant (100 μL) was collected to measure the amount of IL-6 being produced using enzyme linked immuno […] assay (ELISA) (R&D Systems Co., cat. No. D6050). Then the inhibitory activity of the test compound was calculated and the 50% inhibitory concentration (IC50) was determined.

- IC50: 180 nM
Structure (SMILES): O=C(CCCCCNC(=O)c1ccc(-c2ccccc2)cc1)NO [Example 2]
